The text below walks through data of paper PMC12476894, “Identification of α‑Azacyclic Acetamide-Based Inhibitors of P. falciparum Na^+ Pump (PfATP4) with Fast-Killing Asexual Blood-Stage Antimalarial Activity by Phenotypic Screening” (ACS Infectious Diseases, 2025).

Where two headings read alike, the source gives them in different places. Bounds are passed on as bounds.

Format in all cases: cell-based, Plasmodium falciparum
Assay [1] deals with P. falciparum Dd2 (PfDd2) parasites. Description: 72 h SYBR Green growth inhibition, ABS P. falciparum Dd2 (Phillips Lab). As to conditions: read-out: PfDd2 EC50.
Assay [2] has as its system P. falciparum 3D7 parasites (Pf3D7). As to the kind of experiment: 72 h SYBR Green growth inhibition, ABS P. falciparum 3D7 (Phillips Lab). As to conditions: for EC50: 72 h SYBR Green assay, mean ± SEM (n); for reduction of activity relative to 2 / activity of analogs relative to parent 2 or 3 (in words): P. falciparum 3D7 and Dd2 parasites; for reduction of activity relative to 2: analogs of 2.

Another assay has as its system Dd2-B2 (PfATP4^WT). As to the kind of experiment: Drug susceptibility assay for cross-resistance profiling (Fidock Lab), parental line.
Setting [3] is: 72 h SYBR Green assay, mean ± SEM (n).

One may read the EC50 as the concentration that produces a half-maximal response. As for `Cc1cccc(NC(=O)Cn2cccc2-c2nc(-c3ccccc3)cs2)n1` [compound 6, N-(6-methylpyridin-2-yl)-2-[2-(4-phenyl-1,3-thiazol-2-yl)-1H-pyrrol-1-yl]acetamide], the EC50 in assay [1] (setting [3]) stood at 12 ± 1.1 µM. In assay [2], the response was half-maximal at 15 ± 0.87 µM (EC50) and the “reduction of activity relative to 2” value is listed as 10–20 fold.

Regarding `Cc1cccnc1NC(=O)Cn1cccc1-c1nc(-c2ccc(Cl)cc2)cs1` [compound 8, 2-(2-(4-(4-chlorophenyl)-1,3-thiazol-2-yl)-1H-pyrrol-1-yl)-N-(3-methylpyridin-2-yl)acetamide], in assay [1] (setting [3]), the EC50 was more than 30 µM. Besides, in assay [2], the EC50 was more than 30 µM and the “activity of analogs relative to parent 2 or 3 (in words)” value is “complete loss of activity”.

In the case of `N#Cc1cc(NC(=O)[C@H]2c3ccccc3C(=O)N(CC(F)(F)F)[C@@H]2c2cccnc2)ccc1F` [SJ733], in the assay with Dd2-B2 (PfATP4^WT) (Plasmodium falciparum, DD2, read-out: EC50, Dd2-B2), the EC50 amounted to 0.13 µM. For the same compound, the “Fold change, Dd2-B2” value in the assay on Dd2-B2 (PfATP4^WT) (parent, Table S8) amounted to 1 fold.

Regarding `Cc1cccc(NC(=O)Cn2cccc2-c2nc(-c3ccccc3)cs2)c1` [compound 9, N-(3-methylphenyl)-2-[2-(4-phenyl-1,3-thiazol-2-yl)-1H-pyrrol-1-yl]acetamide], the EC50 came out at 1.7 ± 0.038 µM in assay [1] (Plasmodium falciparum, DD2, 72 h) and 2.8 ± 0.17 µM in assay [2] (Plasmodium falciparum, 3D7). In assay [2], the “reduction of activity relative to 2” value is reported as 2 fold.

Regarding `O=C(Cn1cccc1-c1nc(-c2ccc(Cl)cc2)cs1)N1CCc2ccccc21` [compound 11, 2-(2-(4-(4-chlorophenyl)-1,3-thiazol-2-yl)-1H-pyrrol-1-yl)-1-(2,3-dihydro-1H-indol-1-yl)ethan-1-one], the EC50 in assay [1] (setting [3]) and in assay [2] was more than 30 µM throughout. Further, the “activity of analogs relative to parent 2 or 3 (in words)” value in assay [2] was “complete loss of activity”.

Turning to `CC(=O)c1cn(C(C)C(=O)NCCn2nc(C)c(Cl)c2C)c2ccccc12` (centres unmarked) [compound 12, 2-(3-acetyl-1H-indol-1-yl)-N-[2-(4-chloro-3,5-dimethyl-1H-pyrazol-1-yl)ethyl]propenamide], the half-maximal effective concentration (EC50) in assay [1] (setting [3]) is more than 30 µM. Moreover, in assay [2], the EC50 is more than 30 µM and the “activity of analogs relative to parent 2 or 3 (in words)” value is recorded as “loss of activity”.

For `Cc1ccc(NC(=O)Cn2cccc2-c2nc(-c3ccccc3)cs2)nc1` [compound 5, N-(5-methylpyridin-2-yl)-2-[2-(4-phenyl-1,3-thiazol-2-yl)-1H-pyrrol-1-yl]acetamide], the EC50 in assay [1] (setting [3]) worked out at 9.6 ± 0.44 µM. Besides, in assay [2], the 50% effective concentration (EC50) was 10 ± 0.03 µM and the “reduction of activity relative to 2” value is 10–20 fold.

For `O=C(Cn1ccc2ccccc21)NCCn1cccn1` [compound 13, 2-(1H-indol-1-yl)-N-[2-(1H-pyrazol-1-yl)ethyl]acetamide], in assay [1] (setting [3]), the EC50 is more than 30 µM. Besides, in assay [2], the EC50 is more than 30 µM and the “activity of analogs relative to parent 2 or 3 (in words)” value is given as “loss of activity”.

With `Cc1cc(N)n(CC(=O)NCCn2c(C)cc3ccccc32)n1` [compound 14, 2-(5-amino-3-methyl-1H-pyrazol-1-yl)-N-[2-(2-methyl-1H-indol-1-yl)ethyl]acetamide], the EC50 in assay [1] (setting [3]) and in assay [2] was more than 30 µM each time. In assay [2], the “activity of analogs relative to parent 2 or 3 (in words)” value was “loss of activity”.

As to `O=C(Cn1cccc1-c1nc(-c2ccccc2)cs1)Nc1cccc(Cl)c1` [compound 10, N-(3-chlorophenyl)-2-[2-(4-phenyl-1,3-thiazol-2-yl)-1H-pyrrol-1-yl]acetamide], the EC50 in assay [1] (setting [3]) stood at 0.98 ± 0.082 µM. In addition, in assay [2], the EC50 came to 1.6 ± 0.33 µM and the “activity of analogs relative to parent 2 or 3 (in words)” value is reported as “activity was restored”.

`Cc1ccnc(NC(=O)Cn2cccc2-c2nc(-c3ccc(Cl)cc3)cs2)c1` [compound 7, 2-(2-(4-(4-chlorophenyl)-1,3-thiazol-2-yl)-1H-pyrrol-1-yl}-N-(4-methylpyridin-2-yl)acetamide]: the EC50 in assay [1] (setting [3]) came out at 14 ± 0.58 µM. In assay [2], the EC50 came out at 15 ± 2.4 µM and the “reduction of activity relative to 2” value is recorded as 10–20 fold.
